What was measured:
[1] = test system: HL60 cells with SC-derived ECs; test: Leukocyte-endothelial adhesion assay; format: cell-based, human; conditions: SC-derived ECs stimulated, 1 nM
Method: FIG. 16: Leukocyte-endothelial adhesion assay. Activated endothelial cells present adhesion molecules for the recruitment leukocytes. The response to 1 nM TNFα was studied by co-cultivating Calcein-stained HL60 cells with SC-derived ECs. Adhesion of HL60 cells to endothelial cells was quantified by measuring the fluorescence intensity.
2×10^4 Stem Cell-derived endothelial cells/well were seeded onto 96-well plates and cultured for 2 days in EGM-2 medium (Lonza) until confluence. Media was changed with EGM-2 medium supplemented with 1 nM TNFα (R&D Systems). SC-derived ECs were TNFα-stimulated for 4 hours. Thereafter 1.5×10^5 Calcein-labeled HL60 cells were added to each 96 well. After an incubation of one hour medium was removed and Sc-ECs were PBS-washed. Lyse the plate with 1% NP-40 detergent solution for 15 minutes. Supernatants were transferred into optiplates and fluorescence measured in a microplate reader.
To determine whether the differentiation system generates bona fide ECs, we challenged the SC-derived ECs with proinflammatory cytokines and analyzed for an activated expression of effectors of immune cell migration. […] We further confirmed by flow cytometry the presence of ICAM1 and E-SELECTIN upon TNF-α as well as […] stimulation (FIG. 16). HLA-ABC expression served as control to analyze a general und cell type unspecific response to proinflammatory cytokines. […]

[2] = test system: E-SELECTIN; test: Pro-inflammatory cytokine response assay, cell-based ELISA; design: species or system human; conditions: 1 nM, SC-derived ECs
Method: FIG. 15B: Pro-inflammatory cytokine response assay. SC-derived ECs upregulate the expression of the adhesion molecule E-SELECTIN upon pro-inflammatory cytokine administration. Cell-based ELISA was used to measure the activation of SC-derived endothelial cells in response to 1 nM TNFα.
(§1) 20 000 Stem Cell-derived endothelial cells/well were seeded onto 96-well plates and cultured for 2 days in EGM-2 medium (Lonza) until confluence. Media was changed with EGM-2 medium supplemented with 1 nM TNFα (R&D Systems). After an incubation of 24 hours SC-derived ECs were briefly PBS-washed and PFA-fixed Primary antibodies for human anti-ICAM and anti-E-Selectin were purchased from R&D Systems. An anti-mouseIgG/biotinylated (Amersham) as secondary antibody and a Streptavidin/Peroxidase complex (Amersham) were used. Luminescence was quantified in a microplate reader.

[3] = test system: ICAM1; test: as above; design: species or system human; conditions: 1 nM, SC-derived ECs
Method: FIG. 15A: Pro-inflammatory cytokine response assay. SC-derived ECs upregulate the expression of the adhesion molecule ICAM1 upon pro-inflammatory cytokine administration. Cell-based ELISA was used to measure the activation of SC-derived endothelial cells in response to 1 nM TNFα.
as §1

TNFα
adhesion / recruitment of HL60 leukocytes [1]: significantly enhanced | E-SELECTIN expression [2]: significantly upregulated | ICAM1 expression [3]: significantly upregulated

Source: patent US20200182861A1, “METHOD FOR DIFFERENTIATION OF PLURIPOTENT STEM CELLS INTO VASCULAR BED CELLS” (Hoffmann-La Roche Inc., priority 2011, published 2020)
